Reference: ChEMBL document CHEMBL1938350, “Recent progress in biological activities of synthesized phenothiazines” (Eur J Med Chem, 2011)
In brackets after ≈: the same amount, converted by molar mass.

Legend:
Saccharomyces cerevisiae = assay: Antifungal activity against Saccharomyces cerevisiae; type: functional
[1] = system: Trichophyton mentagrophytes; assay: Antifungal activity against Trichophyton mentagrophytes; type: functional
[2] = Cytotoxicity against human leukemia cells; type: functional; conditions: Leukemia cell
[3] = Cytotoxicity against human colon cancer cells; type: functional; conditions: Cancer cell lines, read-out: LC50 (the source's name)
WI-38 [4] = assay: Antimitotic activity against human non-transformed WI38 cells assessed as cell viability at 5 uM after 1 day; type: functional; conditions: WI-38, 24 h, read-out: Activity
WI-38 [5] = assay: Antimitotic activity against human non-transformed WI38 cells assessed as monoastral spindle formation at 5 uM after 1 day; type: functional
[6] = target: T1, Kinesin-like protein KIF11 (Homo sapiens, UniProt P52732); assay: Inhibition of mitotic kinesin Eg5 in human transformed WI38VA13 cells assessed as inhibition of microtubule-activated ATPase activity; type: cell-based
T1 sequence (P52732 whole entry): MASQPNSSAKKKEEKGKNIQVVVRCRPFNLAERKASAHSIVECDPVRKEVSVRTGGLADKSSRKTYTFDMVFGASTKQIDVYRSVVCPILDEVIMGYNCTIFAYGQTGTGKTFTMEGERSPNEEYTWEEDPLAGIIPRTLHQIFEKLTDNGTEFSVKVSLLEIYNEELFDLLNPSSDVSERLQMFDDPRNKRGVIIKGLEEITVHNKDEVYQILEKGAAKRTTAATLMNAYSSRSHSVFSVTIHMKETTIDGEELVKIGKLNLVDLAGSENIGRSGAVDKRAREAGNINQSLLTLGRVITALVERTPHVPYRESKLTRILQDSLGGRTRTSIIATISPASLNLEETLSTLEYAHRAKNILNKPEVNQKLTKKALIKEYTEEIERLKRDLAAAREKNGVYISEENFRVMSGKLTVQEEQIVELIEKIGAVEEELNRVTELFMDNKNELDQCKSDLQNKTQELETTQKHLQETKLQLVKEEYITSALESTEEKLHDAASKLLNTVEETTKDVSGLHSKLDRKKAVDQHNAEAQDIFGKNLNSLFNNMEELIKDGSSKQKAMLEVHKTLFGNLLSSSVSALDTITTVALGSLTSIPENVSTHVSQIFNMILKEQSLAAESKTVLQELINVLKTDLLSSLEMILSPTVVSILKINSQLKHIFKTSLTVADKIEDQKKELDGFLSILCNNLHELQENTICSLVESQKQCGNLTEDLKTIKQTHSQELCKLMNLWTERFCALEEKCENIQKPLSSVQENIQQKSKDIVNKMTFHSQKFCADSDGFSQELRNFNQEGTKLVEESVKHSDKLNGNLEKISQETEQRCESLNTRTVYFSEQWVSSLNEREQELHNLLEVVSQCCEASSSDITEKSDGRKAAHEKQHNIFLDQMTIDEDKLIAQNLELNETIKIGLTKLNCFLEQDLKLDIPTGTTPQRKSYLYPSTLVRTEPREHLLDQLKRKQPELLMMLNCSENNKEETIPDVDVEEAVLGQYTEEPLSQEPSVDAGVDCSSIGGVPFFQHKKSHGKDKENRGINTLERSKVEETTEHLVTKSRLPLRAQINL

SK-MEL-5 = assay: Cytotoxicity against human SK-MEL-5 cells; type: functional
IGROV-1 = assay: Cytotoxicity against human IGROV1 cells; type: functional
[7] = Potentiation of doxorubicin-induced cytotoxicity against human A2780/DX3 cells after 16 hrs; type: functional
[8] = Antiplatelet activity in rabbit platelets assessed as inhibition of collagen-induced platelet aggregation; type: functional, cell-based, Oryctolagus cuniculus
Mus musculus = assay: Antiinflammatory activity in mouse assessed as inhibition of edema formation; type: functional
[9] = Antiplatelet activity in rabbit platelets assessed as inhibition of arachidonic acid-induced platelet aggregation; type: functional, cell-based, Oryctolagus cuniculus
[10] = Toxicity in rat; type: organism-based; conditions: in vivo, read-out: ALD50
Rattus norvegicus = organism: Rattus norvegicus; assay: Anticonvulsant activity in rat assessed as inhibition of seizures; type: functional
[11] = Oryctolagus cuniculus, Platelet

## NCCCCN1c2ccccc2Sc2ccc(C(F)(F)F)cc21
Saccharomyces cerevisiae
  MIC: 0.4 mg/L (≈ 1.18 µM)
[1]
  MIC: 1.5 mg/L (≈ 4.43 µM)

## O=C(NCCCl)NCCCCN1c2ccccc2Sc2ccc(Cl)cc21
[2]
  GI50: 1.4 µM
[3]
  CC50: 5.7 µM

## OC(CNCCc1ccccc1)CN1c2ccccc2Sc2ccc(Cl)cc21 (stereo unspecified)
WI-38 [4]
  viability at 5 µM: 90%
WI-38 [5]
  Activity: 90%
[6]
  IC50: 1.52 µM

## O=C(NCCCl)NCCN1c2nc3ccccc3cc2Sc2cc3ccccc3nc21
SK-MEL-5
  GI50: 0.088 µM

## CCN(CC)CCN1c2nc3ccccc3cc2Sc2cc3ccccc3nc21
IGROV-1
  GI50: 0.19 µM

## O=C(CSCC1CCCN2CCCCC12)N1c2ccccc2Sc2ccc(Cl)cc21 (stereo unspecified)
[7]
  fold change (FC): 3.96

## O=C(CSCC1CCCN2CCCCC12)N1c2ccccc2Sc2ccc(C(F)(F)F)cc21 (stereo unspecified)
[7]
  fold change (FC): 3.96

## COc1ccc2c(c1)N(C(=O)CCSCC1CCCN3CCCCC13)c1ccccc1S2 (stereo unspecified)
[7]
  fold change (FC): 3.96

## CN(C)c1ccc(/C=N/NC(=O)N2c3ccccc3Sc3ccccc32)cc1
[8]
  inhibition (INH): 100%
Mus musculus
  inhibition (INH): 20.5%
[9]
  inhibition (INH): 100%

## O=C(O)c1ccc(/C=N/NC(=O)N2c3ccccc3Sc3ccccc32)cc1
[8]
  inhibition (INH): 100%
Mus musculus
  inhibition (INH): 51%
[9]
  inhibition (INH): 100%

## O=C(N/N=C/c1ccccc1)N1c2ccccc2Sc2ccccc21
[8]; [11]
  IC50: 2.3 µM
[9]; [11]
  IC50: 2.3 µM

## NNC(=O)N1c2ccccc2Sc2ccccc21
[8]
  inhibition (INH): 100%
[9]
  inhibition (INH): 100%

## O=C(N/N=C/C1CCCO1)N1c2ccccc2Sc2ccccc21 (stereo unspecified)
[8]
  inhibition (INH): 100%
[9]
  inhibition (INH): 100%

## O=C(N/N=C/C1CCCS1)N1c2ccccc2Sc2ccccc21 (stereo unspecified)
[8]
  inhibition (INH): 100%
[9]
  inhibition (INH): 100%

## O=C1NC(=O)C(CNc2nnc(CN3c4ccccc4Sc4ccccc43)o2)C(=O)N1
[10]
  LD50: 1000 mg/kg
Rattus norvegicus
  inhibition (INH): 80%

## O=C1NC(=S)NC(=O)C1CNc1nnc(CN2c3ccccc3Sc3ccccc32)s1
[10]
  LD50: 1000 mg/kg
Rattus norvegicus
  inhibition (INH): 80%

## O=C1N=C([O-])NC1(c1ccccc1)c1ccccc1.[Na+] [PHENYTOIN SODIUM]
[10]
  LD50: 1000 mg/kg
